The values that follow come from ChEMBL document CHEMBL1201862, “PubChem BioAssay data set” (2004).

Some test systems named below: SW-620; T47D; DU-145; UACC-62; MCF7; OVCAR-5; BT-549; SN12C; MDA-N; U-251; NCI-H522; A498; HCT-116; KM12; LOX IMVI; HOP-62; PC-3; SNB-75; NCI-H226.
What all share (assay): growth of human tumour cells (NCI), 48 h

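Exposure lasted 48 hours, with cells grown in 96-well plates and compounds tested at five concentrations. GI50 is the concentration that inhibits growth by half.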 Activity calls are given as the source filed them. Cut-off read from the data, not from the text of the source: active = GI50 up to about 1.1 µM and inactive = higher.

For `O=C1C(CN2CCCC2)CCCC1CN1CCCC1` (stereo unspecified), the GI50 was 0.129 µM (active) with SW-620; 2.56 µM (inactive) in the experiment on T47D; 19.8 µM (inactive) in the experiment with DU-145; 16.9 µM (inactive) in the experiment with UACC-62; 0.658 µM (active) in the experiment with MCF7; 5.98 µM (inactive) in the experiment with OVCAR-5. Further, the GI50 was 1.87 µM (inactive) in the experiment with BT-549; 17.1 µM (inactive) in the experiment on SN12C; 7.59 µM (inactive) in the experiment on MDA-N; 19.6 µM (inactive) in the experiment on U-251; 0.0495 µM (active) in the experiment on NCI-H522; 20.7 µM (inactive) with A498. Further, the GI50 with HCT-116 was 1.8 µM (inactive); in the experiment on KM12, 19.7 µM (inactive); with LOX IMVI, 2.52 µM (inactive); in the experiment on HOP-62, > 49.8 µM (inactive); in the experiment with PC-3, 18.2 µM (inactive); with SNB-75 it was 19.7 µM (inactive). For the same molecule, the GI50 with NCI-H226 was 22.1 µM (inactive).

As for `Clc1ccc(OCc2nnc(CCCCCCCCc3nnc(COc4ccc(Cl)cc4)n3Nc3ccccc3)n2Nc2ccccc2)cc1`, the GI50 in the experiment on SW-620 is 16.9 µM (inactive); in the experiment on T47D, 22.1 µM (inactive); in the experiment on DU-145, 19.1 µM (inactive); in the experiment with UACC-62, 0.895 µM (active); with MCF7, 3.75 µM (inactive); in the experiment on OVCAR-5, 2.74 µM (inactive). In addition, the GI50 is 11.6 µM (inactive) with BT-549; 18.2 µM (inactive) in the experiment on SN12C; 1.6 µM (inactive) with MDA-N; 23.5 µM (inactive) with U-251; 2.82 µM (inactive) in the experiment with NCI-H522; 62.5 µM (inactive) with A498. Further, the GI50 in the experiment on HCT-116 is 4.44 µM (inactive); in the experiment on KM12, 11.2 µM (inactive); with LOX IMVI, 21.7 µM (inactive); with HOP-62 it was 1.08 µM (active); in the experiment on PC-3, 1.44 µM (inactive); in the experiment with SNB-75 it was 52.4 µM (inactive). Moreover, the GI50 in the experiment on NCI-H226 is 9.62 µM (inactive).

For the molecule `COc1ccc(/C=C/C(=O)c2cccc(C(=O)/C=C/c3ccc(OC)c(OC)c3)n2)cc1OC`, the GI50 with SW-620 is 3.53 µM (inactive); with T47D, > 49.3 µM (inactive); in the experiment with DU-145, > 100 µM (inactive); in the experiment on UACC-62, 21.7 µM (inactive); with MCF7 it was 3.64 µM (inactive); with OVCAR-5 it was 29.6 µM (inactive). Moreover, the GI50 is 6.15 µM (inactive) with BT-549; 15.5 µM (inactive) in the experiment on SN12C; 15.7 µM (inactive) in the experiment with MDA-N; 6.52 µM (inactive) in the experiment with U-251; 4.75 µM (inactive) with NCI-H522; > 91.2 µM (inactive) with A498. The GI50 is 7.96 µM (inactive) in the experiment on HCT-116; > 55.6 µM (inactive) in the experiment on KM12; 2.02 µM (inactive) in the experiment with LOX IMVI; > 89.7 µM (inactive) with HOP-62; 29 µM (inactive) in the experiment with PC-3; > 100 µM (inactive) in the experiment on SNB-75. Also, in the experiment on NCI-H226, the GI50 was > 100 µM (inactive).

As for `COC(=O)[C@@H](NC(=O)c1ccc(CNC(=O)/C(C)=C/c2ccccc2)cc1)C(C)C`, the GI50 in the experiment on SW-620 was > 100 µM (inactive); in the experiment on T47D it was 56.2 µM (inactive); with DU-145 it was > 100 µM (inactive); in the experiment with UACC-62, 70 µM (inactive); with MCF7, 42.2 µM (inactive); with OVCAR-5, > 100 µM (inactive). Besides, the GI50 in the experiment on BT-549 is > 100 µM (inactive); in the experiment on SN12C it was > 100 µM (inactive); in the experiment on MDA-N, 66.5 µM (inactive); in the experiment on U-251, > 100 µM (inactive); in the experiment with NCI-H522, 83.9 µM (inactive); in the experiment on A498, > 100 µM (inactive). Further, the GI50 in the experiment with HCT-116 was > 100 µM (inactive); in the experiment with KM12 it was 36.1 µM (inactive); in the experiment with LOX IMVI it was 59.2 µM (inactive); in the experiment with HOP-62, > 100 µM (inactive); in the experiment on PC-3 it was > 100 µM (inactive); in the experiment on SNB-75, > 100 µM (inactive). For the same molecule, the GI50 in the experiment on NCI-H226 was > 100 µM (inactive).

Regarding `C/C=C\C1OC1(C)c1cc(=O)c2c(C)cc3c(c2o1)C(=O)c1c(O)c(C2CC(C)(N(C)C)C(OC(C)=O)C(C)O2)cc(C2CC(N(C)C)C(O)C(C)O2)c1C3=O` (stereo unspecified), the GI50 in the experiment on SW-620 is < 0.00375 µM (active); in the experiment on T47D it was 0.00386 µM (active); in the experiment on DU-145, 0.00405 µM (active); with UACC-62 it was < 0.00375 µM (active); in the experiment on MCF7, < 0.00375 µM (active); in the experiment on OVCAR-5 it was 0.00546 µM (active). The GI50 in the experiment on BT-549 is 0.00596 µM (active); in the experiment with SN12C it was < 0.00375 µM (active); with MDA-N, 0.0043 µM (active); in the experiment with U-251 it was < 0.00375 µM (active); in the experiment on NCI-H522, < 0.00375 µM (active); in the experiment on A498, 0.00875 µM (active). In addition, the GI50 in the experiment on HCT-116 was < 0.00375 µM (active); in the experiment with KM12 it was 0.0042 µM (active); in the experiment on LOX IMVI it was < 0.00375 µM (active); with HOP-62, < 0.00375 µM (active); with PC-3, 0.00405 µM (active); in the experiment with SNB-75 it was < 0.00375 µM (active). Besides, in the experiment with NCI-H226, the GI50 was 0.00461 µM (active).

In the case of `O=C1CSC(c2cc3cc(Br)ccc3nc2Cl)N1c1ccc(F)c(Cl)c1` (stereo unspecified), the GI50 was 28.5 µM (inactive) in the experiment with SW-620; 31.4 µM (inactive) in the experiment on T47D; > 50 µM (inactive) in the experiment with DU-145; > 50 µM (inactive) in the experiment on UACC-62; 18.9 µM (inactive) in the experiment on MCF7; > 50 µM (inactive) with OVCAR-5. The GI50 was > 50 µM (inactive) in the experiment on BT-549; > 50 µM (inactive) in the experiment on SN12C; 48.3 µM (inactive) in the experiment with MDA-N; 33.1 µM (inactive) with NCI-H522; > 50 µM (inactive) with A498; > 50 µM (inactive) with HCT-116. Also, the GI50 in the experiment with KM12 was 35.6 µM (inactive); in the experiment with LOX IMVI, 22.9 µM (inactive); with HOP-62 it was > 50 µM (inactive); in the experiment on PC-3 it was 29.9 µM (inactive); in the experiment with SNB-75, > 50 µM (inactive); with NCI-H226, 43.5 µM (inactive).

Regarding `Clc1ccc(-c2cc(-c3cc4cc(Br)ccc4nc3Cl)on2)cc1`, the GI50 in the experiment on SW-620 was 10.4 µM (inactive); in the experiment on T47D, 15 µM (inactive); in the experiment on DU-145, 18.8 µM (inactive); in the experiment on UACC-62 it was 14.5 µM (inactive); in the experiment on MCF7, 13.1 µM (inactive); in the experiment on OVCAR-5, 1.4 µM (inactive). Moreover, the GI50 was 20.2 µM (inactive) in the experiment on BT-549; 16.1 µM (inactive) in the experiment with SN12C; 11.8 µM (inactive) in the experiment with MDA-N; 10.2 µM (inactive) in the experiment with NCI-H522; 11.7 µM (inactive) with A498; 12.2 µM (inactive) in the experiment on HCT-116. The GI50 with KM12 is 15.5 µM (inactive); in the experiment with LOX IMVI it was 10 µM (inactive); in the experiment on HOP-62, 6 µM (inactive); with PC-3, 16.5 µM (inactive); in the experiment with SNB-75, 25.1 µM (inactive); with NCI-H226 it was 13.3 µM (inactive).

As for `COC(=O)c1c(C)cccc1/C=C1\Cc2cc(C)cc(C)c2C1=O`, the GI50 in the experiment with SW-620 was > 100 µM (inactive); with T47D, 31.7 µM (inactive); in the experiment on DU-145 it was > 100 µM (inactive); in the experiment on UACC-62, 10 µM (inactive); in the experiment on MCF7 it was 25.8 µM (inactive); in the experiment with OVCAR-5, > 100 µM (inactive). For the same molecule, the GI50 was > 100 µM (inactive) in the experiment with BT-549; > 100 µM (inactive) with SN12C; > 100 µM (inactive) in the experiment on MDA-N; 15.3 µM (inactive) in the experiment on U-251; 11.2 µM (inactive) with NCI-H522; 51.2 µM (inactive) in the experiment on A498. For the same molecule, the GI50 is 36.8 µM (inactive) in the experiment with HCT-116; > 100 µM (inactive) with KM12; > 100 µM (inactive) with LOX IMVI; 12 µM (inactive) in the experiment with HOP-62; > 100 µM (inactive) in the experiment on PC-3; 12.9 µM (inactive) in the experiment on SNB-75. In addition, the GI50 in the experiment with NCI-H226 is 56.5 µM (inactive).

`COc1cc2c(cc1OC)[C@H](C)N1CCc3cc(OC)c(OC)cc3[C@@H]1C2`: the GI50 with SW-620, in the experiment on T47D, in the experiment with DU-145, in the experiment on UACC-62, in the experiment on MCF7 and in the experiment with OVCAR-5 was > 100 µM (inactive) each time. Further, the GI50 with BT-549, in the experiment with SN12C, in the experiment on MDA-N, with U-251, in the experiment with NCI-H522 and with A498 was > 100 µM (inactive) throughout. The GI50 in the experiment on HCT-116, in the experiment with KM12, in the experiment on LOX IMVI, in the experiment with PC-3, in the experiment on SNB-75 and in the experiment on NCI-H226 was > 100 µM (inactive) in each case.

With `COc1ccc(NC(C(N)=O)c2cc3cc(Br)ccc3nc2Cl)cc1` (stereo unspecified), the GI50 in the experiment with SW-620 was 38.7 µM (inactive); in the experiment on T47D, 58.1 µM (inactive); with DU-145 it was > 100 µM (inactive); in the experiment on UACC-62, 52.7 µM (inactive); in the experiment with MCF7, 32.4 µM (inactive); in the experiment with OVCAR-5, > 100 µM (inactive). In addition, the GI50 with BT-549 was 31.4 µM (inactive); in the experiment on SN12C, > 100 µM (inactive); with MDA-N it was 28.1 µM (inactive); in the experiment with NCI-H522, 34 µM (inactive); in the experiment on A498 it was > 100 µM (inactive); in the experiment with HCT-116, 61 µM (inactive). The GI50 with KM12 is 48.4 µM (inactive); in the experiment on LOX IMVI it was 44.6 µM (inactive); in the experiment with HOP-62, 59.8 µM (inactive); in the experiment on PC-3, 44.6 µM (inactive); with SNB-75 it was 81.5 µM (inactive); in the experiment with NCI-H226, > 100 µM (inactive).
